# Test results taken from US12304910B2, “Janus kinase (JAK) family inhibitor, preparation of same, and applications thereof” (JIANGSU VCARE PHARMATECH CO., LTD., priority 2019, dated 2025).
# Columns and labels:
# [1] = system: DSS induced mouse ulcerative colitis model; experiment: Efficacy test in DSS induced mouse ulcerative colitis model; type: in vivo
# Text: Mice of 6-7 weeks old were randomly grouped, 6 mice per group. Purified water was provided ad libitum to the mice in a negative control group, and a 2% solution of dextran sulfate sodium (DSS) was provided ad libitum to the mice in other groups, for 7 consecutive days. During the modeling, medication was given according to the groups, once a day for 7 days (the treatment groups and the mouse numbers can be adjusted according to the specific situation). Within 8-10 days later, the DSS-containing water was replaced with purified water, provided ad libitum to the mice. The normal administration continued for 3 days.
# From the first day of administration, the general conditions such as metal state, eating, drinking and activities of the mice were respectively observed every day, the mice were weighed every day, and the animal stools were collected, evaluated for their traits and subjected to the occult blood test. The disease activity index (DAI) of experimental animals within 1-10 days were comprehensively assessed.
# Scoring was performed according to the above-mentioned standards. The disease activity index (DAI) of each mouse was obtained by summing the scores of weight loss, stool trait and occult blood condition, to evaluate the disease activity. DAI=(score of weight loss+score of stool trait+score of bloody stool)/3, ranging from 0-4.
# The experimental data was processed statistically, and the data are all expressed as mean±SD or mean±SME. The SPSS13.0 software was used for statistical analysis, and the differences among the groups were compared with t test (equal variance) or t′ test (unequal variance).
# [2] = system: DNBS induced rat Crohn's disease model; experiment: Therapeutic activity in DNBS induced rat Crohn's disease model; type: in vivo; design: rat colon ulcer area: unit not given beside the values; settings: for colon weight-length ratio / rat colon ulcer area: 7 days, mean±SD; for colon weight-length ratio: colon weight (g)/length (cm) ratio×100, model group G2 14.6±5.1; for rat colon ulcer area: model group G2 1.54±2.00
# Experimental: Male wistar rats of 4-5 weeks old were adaptively fed for 5 days, and two days before the experiment, randomly divided into 6 groups:
# Blank control group: G1 (Normal), 4 normal rats were selected and only given with 30% ethanol, 10 mL/kg.
# 0.5 mL of 50 mg/mL DNBS (DNBS dissolved in 30% ethanol) was injected into the colon of rats to induce enteritis in rats, for 40 rats in total. Eight of them were selected as model group G2 (Model), and the remaining 32 rats were administrated.
# Administration group: the rats with DNBS induced enteritis were administered with ABT494 and the compound of Example 2 respectively and divided into G3-G6 groups, 8 rats/group. G3: ABT494, 10 mg/kg-QD; G4: Example 2, 0.3 mg/kg-BID; G5: Example 2, 1 mg/kg-BID; and G6: Example 2, 3 mg/kg-BID.
# The rats were fasted, but fed with water for 48 hours, and a 5% glucose salt solution (10 mL/kg) was used as an energy supplement for experimental animals during the fasting period, once a day. On the day of experimental modeling, the fasting rats were anesthetized with Choutet (25 mg/kg), and then 0.5 mL of 50 mg/mL DNBS was injected from the anus to left colic flexure of the rat (about 8 cm to the anus) to induce rat enteritis. All rats were kept in a […] for 15 min until they were awaken, to prevent the backflow of DNBS. From the day of the experimental modeling, medication was given for 7 days.
# After the DNBS modeling, the weights of the animals were measured and recorded every day, the daily activities of the animals were observed, and the abnormalities were recorded. During the experiment, the stool state of the rats was scored every day. On day 7, the rats were anesthetized with isoflurane (3-5%), blood was taken from the orbit, and the serum was separated and stored at −80° C. All animals were euthanized by cervical vertebra dis location after suffocation from excessive CO2 inhalation. The abdomen was cut, the colorectum was take out and longitudinally dissected, and the stool trait in the colorectum was scored. The colorectum was thoroughly rinsed with ice-cold PBS and then the ulcer surface was observed. The length and weight and ulcer area of the colon were recorded, the weight-length ratio (colon weight (g)/length (cm) ratio×100) was calculated, and the overall picture was taken. All intestinal tissue was longitudinally divided into two parts, where one part was fixed with 4% neutral […] and embedded with paraffin, and the rest colon sample was cryopreserved at −80° C.
# Excel and Graphapad software were used for statistical analysis, and the results were expressed as mean±SD.
smiles,measurement,setting,value
"NC(=O)c1cnc2[nH]ccc2c1NN1CCC[C@H](C(=O)NCC(F)F)C1 [Example 2, (S)-4-(3-(2,2-difluoroethylcarbamoyl)piperidine-1-amino)-1H-7-azaindole-5-carboxamide]",DAI score on day 8,"[1]; 5 mg/kg group, once a day, mouse DSS model, DAI range 0-4",1.5
same,effect on DSS induced enteritis in mice (in words),[1]; relatively low dose,significant effect in inhibiting the DSS induced enteritis in mice
same,colon weight-length ratio,"[2]; G4, 0.3 mg/kg-BID",10.5±3.9
same,rat colon ulcer area,"[2]; G4, 0.3 mg/kg-BID",0.83±1.00
same,colon weight-length ratio,"[2]; G5, 1 mg/kg-BID",10.0±1.9
same,rat colon ulcer area,"[2]; G5, 1 mg/kg-BID",0.65±1.05
same,colon weight-length ratio,"[2]; G6, 3 mg/kg-BID",10.5±2.0
same,rat colon ulcer area,"[2]; G6, 3 mg/kg-BID",0.76±1.21
same,effect on DNBS induced enteritis of the rats (in words),[2]; relatively low dose,significant effect in inhibiting the DNBS induced enteritis of the rats
